Tests used:
TK-10 [1] = experiment: Cytotoxicity against human TK10 cells assessed as cell growth at 0.1 uM after 48 hrs by sulforhodamine B assay relative to control; type: functional; details: TK-10, 48 h, read-out: Activity
CCRF-CEM = experiment: Cytotoxicity against human CCRF-CEM cells assessed as cell growth at 0.01 uM after 48 hrs by sulforhodamine B assay relative to control; type: functional; details: read-out: Activity
OVCAR-4 [2] = experiment: Cytotoxicity against human OVCAR4 cells assessed as cell growth at 1 uM after 48 hrs by sulforhodamine B assay relative to control; type: functional; details: OVCAR-4, 48 h, read-out: Activity
IGROV-1 = experiment: Cytotoxicity against human IGROV1 cells assessed as cell growth at 1 uM after 48 hrs by sulforhodamine B assay relative to control; type: functional; details: IGROV-1, 48 h, read-out: Activity
UO-31 = experiment: Cytotoxicity against human UO31 cells assessed as cell growth at 0.1 uM after 48 hrs by sulforhodamine B assay relative to control; type: functional; details: UO-31, 48 h, read-out: Activity
U-251 = experiment: Cytotoxicity against human U251 cells assessed as cell growth at 0.01 uM after 48 hrs by sulforhodamine B assay relative to control; type: functional; details: U-251, 48 h, read-out: Activity
MDA-MB-468 = experiment: Cytotoxicity against human MDA-MB-468 cells assessed as cell growth at 10 uM after 48 hrs by sulforhodamine B assay relative to control; type: functional; details: MDA-MB-468, 48 h, read-out: Activity
K562 = experiment: Cytotoxicity against human K562 cells assessed as cell growth at 0.01 uM after 48 hrs by sulforhodamine B assay relative to control; type: functional; details: K562, 48 h, read-out: Activity
NCI-H226 [3] = experiment: Cytotoxicity against human NCI-H226 cells assessed as cell growth at 1 uM after 48 hrs by sulforhodamine B assay relative to control; type: functional; details: NCI-H226, 48 h, read-out: Activity
OVCAR-3 = experiment: Cytotoxicity against human OVCAR3 cells assessed as cell growth at 100 uM after 48 hrs by sulforhodamine B assay relative to control; type: functional; details: OVCAR-3, 48 h, read-out: Activity
MOLT-4 = experiment: Cytotoxicity against human MOLT4 cells assessed as cell growth at 0.1 uM after 48 hrs by sulforhodamine B assay relative to control; type: functional; details: MOLT-4, 48 h, read-out: Activity
MDA-MB-231 = experiment: Cytotoxicity against human MDA-MB-231 cells assessed as growth inhibition after 48 hrs by MTT assay; type: functional, cell-based; details: MDA-MB-231, 48 h
SF-268 = experiment: Cytotoxicity against human SF268 cells assessed as cell growth at 0.01 uM after 48 hrs by sulforhodamine B assay relative to control; type: functional; details: SF-268, 48 h, read-out: Activity
OVCAR-4 [4] = experiment: Cytotoxicity against human OVCAR4 cells assessed as cell growth at 10 uM after 48 hrs by sulforhodamine B assay relative to control; type: functional; details: OVCAR-4, 48 h, read-out: Activity
OVCAR-8 [5] = experiment: Cytotoxicity against human OVCAR8 cells assessed as cell growth at 0.1 uM after 48 hrs by sulforhodamine B assay relative to control; type: functional; details: OVCAR-8, 48 h, read-out: Activity
SK-MEL-28 = experiment: Cytotoxicity against human SK-MEL-28 cells assessed as cell growth at 10 uM after 48 hrs by sulforhodamine B assay relative to control; type: functional; details: SK-MEL-28, 48 h, read-out: Activity
HCT-15 [6] = experiment: Cytotoxicity against human HCT15 cells assessed as cell growth at 0.01 uM after 48 hrs by sulforhodamine B assay relative to control; type: functional; details: HCT-15, 48 h, read-out: Activity
SNB-19 = experiment: Cytotoxicity against human SNB19 cells assessed as cell growth at 0.1 uM after 48 hrs by sulforhodamine B assay relative to control; type: functional; details: SNB-19, 48 h, read-out: Activity
HL-60(TB) = experiment: Cytotoxicity against human HL-60(TB) cells assessed as growth inhibition after 48 hrs by sulforhodamine B assay; type: functional; details: HL-60, 48 h
HCC 2998 = experiment: Cytotoxicity against human HCC2998 cells assessed as growth inhibition after 48 hrs by sulforhodamine B assay; type: functional; details: HCC 2998, 48 h
HCT-15 [7] = experiment: Cytotoxicity against human HCT15 cells assessed as growth inhibition after 48 hrs by sulforhodamine B assay; type: functional; details: HCT-15, 48 h
MCF7 [8] = experiment: Cytotoxicity against human MCF7 cells assessed as growth inhibition after 48 hrs by sulforhodamine B assay; type: functional; details: MCF7, 48 h
OVCAR-8 [9] = experiment: Cytotoxicity against human OVCAR8 cells assessed as cell growth at 0.01 uM after 48 hrs by sulforhodamine B assay relative to control; type: functional; details: OVCAR-8, 48 h, read-out: Activity
TK-10 [10] = experiment: Cytotoxicity against human TK10 cells assessed as cell growth at 100 uM after 48 hrs by sulforhodamine B assay relative to control; type: functional; details: TK-10, 48 h, read-out: Activity
NCI/ADR-RES = experiment: Cytotoxicity against human NCI/ADR-RES cells assessed as cell growth at 100 uM after 48 hrs by sulforhodamine B assay relative to control; type: functional; details: read-out: Activity
HT-29 = experiment: Cytotoxicity against human HT-29 cells assessed as growth inhibition after 48 hrs by sulforhodamine B assay; type: functional; details: HT-29, 48 h
MCF7 [11] = experiment: Cytotoxicity against human MCF7 cells assessed as cell growth at 0.01 uM after 48 hrs by sulforhodamine B assay relative to control; type: functional; details: MCF7, 48 h, read-out: Activity
SF-539 = experiment: Cytotoxicity against human SF539 cells assessed as growth inhibition after 48 hrs by sulforhodamine B assay; type: functional; details: SF-539, 48 h
NCI-H226 [12] = experiment: Cytotoxicity against human NCI-H226 cells assessed as cell growth at 10 uM after 48 hrs by sulforhodamine B assay relative to control; type: functional; details: NCI-H226, 48 h, read-out: Activity
A549 = experiment: Cytotoxicity against human A549/ATCC cells assessed as growth inhibition after 48 hrs by sulforhodamine B assay; type: functional; details: A549, 48 h
SK-MEL-5 = experiment: Cytotoxicity against human SK-MEL-5 cells assessed as cell growth at 1 uM after 48 hrs by sulforhodamine B assay relative to control; type: functional; details: SK-MEL-5, 48 h, read-out: Activity
NCI-H522 = experiment: Cytotoxicity against human NCI-H522 cells assessed as cell growth at 100 uM after 48 hrs by sulforhodamine B assay relative to control; type: functional; details: NCI-H522, 48 h, read-out: Activity
OVCAR-8 [13] = experiment: Cytotoxicity against human OVCAR8 cells assessed as cell growth at 1 uM after 48 hrs by sulforhodamine B assay relative to control; type: functional; details: OVCAR-8, 48 h, read-out: Activity
UACC-257 = experiment: Cytotoxicity against human UACC257 cells assessed as cell growth at 10 uM after 48 hrs by sulforhodamine B assay relative to control; type: functional; details: UACC-257, 48 h, read-out: Activity
UACC-62 = experiment: Cytotoxicity against human UACC62 cells assessed as growth inhibition after 48 hrs by sulforhodamine B assay; type: functional; details: UACC-62, 48 h

## COc1ccc(-c2cc(/C=C/C(=O)c3ccc(N)cc3)[nH]n2)cc1
TK-10 [1]
  growth at 0.1 µM: 95%
CCRF-CEM
  growth at 0.01 µM: 99%
OVCAR-4 [2]
  growth at 1 µM: 52%
IGROV-1
  growth at 1 µM: 89%
UO-31
  growth at 0.1 µM: 82%
U-251
  growth at 0.01 µM: 97%
MDA-MB-468
  growth at 10 µM: -62%
K562
  growth at 0.01 µM: 98%
NCI-H226 [3]
  growth at 1 µM: 86%
OVCAR-3
  growth at 100 µM: -85%
MOLT-4
  growth at 0.1 µM: 98%
MDA-MB-231
  IC50: 1700 nM
SF-268
  growth at 0.01 µM: 95%
OVCAR-4 [4]
  growth at 10 µM: -6%
OVCAR-8 [5]
  growth at 0.1 µM: 100%
SK-MEL-28
  growth at 10 µM: -60%
HCT-15 [6]
  growth at 0.01 µM: 97%
SNB-19
  growth at 0.1 µM: 89%
HL-60(TB)
  GI50: 1430 nM
  LC50: > 100 µM
  TGI: 7.71 µM
HCC 2998
  GI50: 1830 nM
  LC50: 6.17 µM
  TGI: 3.36 µM
HCT-15 [7]
  GI50: 1000 nM
  LC50: 34.9 µM
  TGI: 3.62 µM
MCF7 [8]
  GI50: 780 nM
  LC50: 34.1 µM
  TGI: 3.84 µM
OVCAR-8 [9]
  growth at 0.01 µM: 96%
TK-10 [10]
  growth at 100 µM: -91%
NCI/ADR-RES
  growth at 100 µM: -38%
HT-29
  GI50: 2750 nM
  LC50: 74.1 µM
  TGI: 8.11 µM
MCF7 [11]
  growth at 0.01 µM: 84%
SF-539
  GI50: 1470 nM
  LC50 (concentration killing 50% of cells): 8.25 µM
  TGI: 3.48 µM
NCI-H226 [12]
  growth at 10 µM: -29%
A549
  GI50: 2550 nM
  LC50 (concentration giving 50% net cell kill): 46.9 µM
  TGI: 10.2 µM
SK-MEL-5
  growth at 1 µM: 90%
NCI-H522
  growth at 100 µM: -75%
OVCAR-8 [13]
  growth at 1 µM: 76%
UACC-257
  growth at 10 µM: -54%
UACC-62
  GI50: 1480 nM
  LC50: 5.84 µM
  TGI: 2940 nM
